{
  "source": "ChEMBL document CHEMBL5678818",
  "about": "“Discovery of potent SOS1 inhibitors that block RAS activation via disruption of the RAS-SOS1 interaction” (Proc Natl Acad Sci U S A, 2019)",
  "key": {"[1]": {"biological_target": "T1, Son of sevenless homolog 1 (Homo sapiens) (UniProt Q07889)", "T1 sequence (whole entry)": "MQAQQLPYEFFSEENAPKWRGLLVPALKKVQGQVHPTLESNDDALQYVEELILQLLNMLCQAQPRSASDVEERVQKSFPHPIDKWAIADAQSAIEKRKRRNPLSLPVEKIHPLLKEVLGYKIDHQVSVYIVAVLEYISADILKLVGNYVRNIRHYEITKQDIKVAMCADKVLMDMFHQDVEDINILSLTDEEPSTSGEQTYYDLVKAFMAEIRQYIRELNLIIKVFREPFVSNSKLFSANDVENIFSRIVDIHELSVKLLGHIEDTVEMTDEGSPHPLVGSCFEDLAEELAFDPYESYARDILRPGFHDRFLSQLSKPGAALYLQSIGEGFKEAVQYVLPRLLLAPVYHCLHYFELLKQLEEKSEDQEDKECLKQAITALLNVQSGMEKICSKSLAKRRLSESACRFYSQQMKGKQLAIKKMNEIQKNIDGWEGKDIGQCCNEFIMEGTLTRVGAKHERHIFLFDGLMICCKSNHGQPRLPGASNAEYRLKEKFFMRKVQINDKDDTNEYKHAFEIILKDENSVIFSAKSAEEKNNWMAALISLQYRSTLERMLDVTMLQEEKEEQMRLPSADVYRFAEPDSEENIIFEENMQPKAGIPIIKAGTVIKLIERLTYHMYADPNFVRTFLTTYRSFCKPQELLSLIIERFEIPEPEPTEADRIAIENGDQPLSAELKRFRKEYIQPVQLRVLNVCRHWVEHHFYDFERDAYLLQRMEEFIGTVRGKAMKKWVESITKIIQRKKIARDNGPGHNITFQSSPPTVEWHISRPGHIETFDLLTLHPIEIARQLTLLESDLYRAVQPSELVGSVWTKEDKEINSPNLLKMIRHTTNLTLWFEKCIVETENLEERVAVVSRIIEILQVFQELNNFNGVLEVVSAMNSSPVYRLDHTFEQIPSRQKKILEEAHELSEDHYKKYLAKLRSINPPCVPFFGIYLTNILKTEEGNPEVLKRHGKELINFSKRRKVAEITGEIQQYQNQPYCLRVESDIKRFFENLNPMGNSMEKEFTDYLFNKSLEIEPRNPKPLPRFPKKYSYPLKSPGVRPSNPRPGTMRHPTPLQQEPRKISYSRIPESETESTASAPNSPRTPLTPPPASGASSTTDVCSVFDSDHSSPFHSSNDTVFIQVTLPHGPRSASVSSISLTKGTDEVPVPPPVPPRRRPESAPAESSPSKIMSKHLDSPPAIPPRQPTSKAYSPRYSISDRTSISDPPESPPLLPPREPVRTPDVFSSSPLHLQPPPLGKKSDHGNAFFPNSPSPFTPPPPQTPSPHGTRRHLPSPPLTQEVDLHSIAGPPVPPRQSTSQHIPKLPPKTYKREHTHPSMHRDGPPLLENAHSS", "test": "Inhibition of N-terminal His10-tagged wild-type recombinant human SOS1 catalytic domain (564 to 1049 residues) expressed in Escherichia coli assessed as reduction in KRAS G12C mutant activation at 10 uM by HTRF analysis relative to control"}, "[2]": {"biological_target": "T2, Discoidin domain-containing receptor 2 (Homo sapiens) (UniProt Q16832)", "T2 sequence (whole entry)": "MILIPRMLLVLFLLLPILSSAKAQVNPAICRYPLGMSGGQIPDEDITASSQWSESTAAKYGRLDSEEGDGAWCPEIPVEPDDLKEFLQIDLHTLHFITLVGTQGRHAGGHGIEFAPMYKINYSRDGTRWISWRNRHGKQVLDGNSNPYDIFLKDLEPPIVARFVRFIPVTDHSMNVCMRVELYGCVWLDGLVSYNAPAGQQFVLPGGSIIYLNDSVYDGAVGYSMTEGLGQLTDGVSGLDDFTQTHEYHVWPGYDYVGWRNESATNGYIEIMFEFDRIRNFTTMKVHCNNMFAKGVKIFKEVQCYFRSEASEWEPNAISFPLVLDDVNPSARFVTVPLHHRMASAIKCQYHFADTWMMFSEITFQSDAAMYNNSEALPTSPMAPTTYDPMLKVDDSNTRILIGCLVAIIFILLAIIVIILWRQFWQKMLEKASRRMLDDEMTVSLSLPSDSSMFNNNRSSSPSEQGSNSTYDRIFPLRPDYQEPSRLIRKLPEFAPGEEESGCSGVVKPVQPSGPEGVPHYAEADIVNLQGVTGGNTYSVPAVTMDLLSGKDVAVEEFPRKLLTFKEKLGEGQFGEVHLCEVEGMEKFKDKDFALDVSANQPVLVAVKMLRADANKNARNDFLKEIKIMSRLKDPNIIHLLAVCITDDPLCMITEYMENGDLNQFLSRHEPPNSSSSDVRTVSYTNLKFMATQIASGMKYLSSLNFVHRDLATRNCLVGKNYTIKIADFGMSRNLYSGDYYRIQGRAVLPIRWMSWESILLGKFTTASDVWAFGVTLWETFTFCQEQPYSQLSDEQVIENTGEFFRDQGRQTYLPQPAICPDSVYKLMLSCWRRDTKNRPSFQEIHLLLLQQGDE", "test": "Inhibition of DDR2 (unknown origin) assessed as residual activity at 100 nM by KINOMEscan analysis relative to control"}, "[3]": {"biological_target": "Ephrin type-A receptor 2 (Homo sapiens) (UniProt P29317)", "sequence (P29317 whole entry)": "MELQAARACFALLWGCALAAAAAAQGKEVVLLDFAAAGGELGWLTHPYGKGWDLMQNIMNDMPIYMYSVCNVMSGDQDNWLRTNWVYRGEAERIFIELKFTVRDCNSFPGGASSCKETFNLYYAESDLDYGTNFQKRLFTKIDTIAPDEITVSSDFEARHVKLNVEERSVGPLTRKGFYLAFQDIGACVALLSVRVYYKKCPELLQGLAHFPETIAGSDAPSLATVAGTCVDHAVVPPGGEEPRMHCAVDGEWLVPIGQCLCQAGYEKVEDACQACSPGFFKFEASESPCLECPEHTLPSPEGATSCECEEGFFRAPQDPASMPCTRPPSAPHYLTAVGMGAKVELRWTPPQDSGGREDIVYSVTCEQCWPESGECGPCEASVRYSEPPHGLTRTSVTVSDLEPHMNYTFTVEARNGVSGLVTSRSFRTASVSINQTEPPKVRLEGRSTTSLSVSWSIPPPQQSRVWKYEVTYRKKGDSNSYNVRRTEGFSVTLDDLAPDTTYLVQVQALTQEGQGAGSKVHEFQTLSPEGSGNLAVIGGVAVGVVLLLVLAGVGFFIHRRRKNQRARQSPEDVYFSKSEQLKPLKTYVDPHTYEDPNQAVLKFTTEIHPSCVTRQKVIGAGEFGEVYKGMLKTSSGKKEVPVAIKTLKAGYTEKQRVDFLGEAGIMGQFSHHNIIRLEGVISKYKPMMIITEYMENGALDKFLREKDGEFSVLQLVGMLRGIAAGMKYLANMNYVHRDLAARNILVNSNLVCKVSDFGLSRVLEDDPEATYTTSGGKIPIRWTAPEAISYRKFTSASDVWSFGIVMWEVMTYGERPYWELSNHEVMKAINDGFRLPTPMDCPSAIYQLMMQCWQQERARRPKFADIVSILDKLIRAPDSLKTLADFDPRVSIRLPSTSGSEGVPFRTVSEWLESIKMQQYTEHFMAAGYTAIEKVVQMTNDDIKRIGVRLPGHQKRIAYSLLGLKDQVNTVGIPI", "test": "Inhibition of EPHA2 (unknown origin) assessed as residual activity at 100 nM by KINOMEscan analysis relative to control"}},
  "data": [
    {"molecule": "COc1cc2ncnc(N[C@H](C)c3cccc4ccccc34)c2cc1OC", "values": [
      {"measurement": "inhibition", "setting": "[1]", "value": 95, "unit": "%"},
      {"measurement": "Activity", "setting": "[2]", "value": 67, "unit": "%"},
      {"measurement": "Activity", "setting": "[3]", "value": 82, "unit": "%"}
    ]}
  ]
}
